One series has as its system THP-1. The format is cell-based. The conditions noted are these: Homo sapiens, 72 h, Cell Titer Glo.
Series [1] deals with U937. It is filed as cell-based. The conditions noted are these: Homo sapiens, U-937; 72 h, Cell Titer Glo. (Cellular ATP, detected with luciferase, serves as a proxy for viable cell number.)
Series [2] concerns CHRF288-11. It is filed as cell-based. The conditions noted are these: Homo sapiens; 72 h, Cell Titer Glo; read-out: IC50 CHRF288-11.
Series [3] relates to CHRF288-11. Nature of the series: Secondary dose-response HTS, Cell Titer Glo. It is filed as cell-based, human. The conditions noted are these: for EC50: Homo sapiens.
Series [4] deals with U937. Nature of the series: Secondary dose-response HTS, Cell Titer Glo. It is filed as cell-based, human. Conditions: Homo sapiens, U-937.
The test system of series [5] is CMS. It is filed as cell-based. Conditions: Homo sapiens, 72 h, read-out: IC50 CMS.
The test system of the next series is ML-2. It is filed as cell-based. Conditions: Homo sapiens, 72 h, Cell Titer Glo.
A further series concerns ML2. Nature of the series: Secondary dose-response HTS, Cell Titer Glo. Conditions: Homo sapiens, ML-2. It is filed as cell-based, human.
Series [6] has as its system MOLM-13. It is filed as cell-based. The conditions noted are these: Homo sapiens, 72 h, Cell Titer Glo.
For series [7], the system named is MOLM-13. In words: Secondary dose-response HTS, Cell Titer Glo. It is filed as cell-based, human. The conditions noted are these: MOLM-13; for EC50: Homo sapiens.
Series [8] deals with M07e. Nature of the series: Secondary dose-response HTS, Cell Titer Glo. The format is cell-based, human. Conditions: Homo sapiens, M-07e.
Series [9] deals with Mll-PTD/wt:Flt3ITD/ITD primary transplants. In words: In vivo efficacy, survival. Set-up: species or system mice.
Series [10] concerns AMKL primary AML blast samples. Nature of the series: Ex vivo drug treatment of primary AML blasts on mesenchymal stromal cells. The format is cell-based. Conditions: Homo sapiens; primary blasts on MSC, 96 h.
The test system of series [11] is AMKL patient-derived xenograft. Nature of the series: In vivo efficacy, survival. Set-up: species or system NSG-SGM3 mice. The conditions noted are these: AMKL PDX, i.p.
In series [12] the test system is ML-2-luciferase/YFP+ xenograft. Nature of the series: In vivo efficacy, survival. Conditions: ML-2 xenograft, i.p. Set-up: species or system NSG mice.
Series [13] is described as follows: In vivo tolerability / maximum tolerated dose. Set-up: species or system mice. Conditions: multiple doses, intermittent every 3 or 4-day schedule. On the procedure:
Next, we sought to compare the in vivo efficacy of gemcitabine and cabazitaxel to the standard of care, cytarabine. Due to limitations with tolerability, we have previously treated our AML xenograft models with low-dose cytarabine[13],[31]. […] Tolerability studies of gemcitabine at the same dose and schedule was not tolerated. […] Similarly, we performed tolerability of cabazitaxel using multiple doses on an intermittent every 3 or 4-day schedule; the only tolerable dose was 5 mg/kg.
All animal studies were performed in accordance with Animal Care and Use Programs under protocols approved by the Institutional Animal Care and Use Committee at OSU. We have complied with the relevant ethical considerations for animal research overseen by this committee. Mice were housed in a barrier facility. Non-tumor bearing Ly5.2 C57Bl/6 (BoyJ) mice were treated with 100, 120, or 140 mg kg^−1 gemcitabine on an intermittent schedule every 3 days for 3 weeks; 3 or 6 mg kg^−1 doses were used to evaluate daily for 5 days schedule. All doses were administered by intraperitoneal injection; tolerability was assessed by daily weights and observation of changes in body condition.
Supplementary Figure 12. Establish maximum tolerated dose of gemcitabine. Non-tumor bearing female BoyJ mice were treated on an intermittent schedule every 3 days for 3 weeks with 100, 120, or 140 m gkg-1 gemcitabine (Gem ) or treated on a daily schedule once a day for 5 days with 3 or 6 m gkg-1 Gem. Daily weight of treated mice; data reported as a percent weight loss from day 0. Arrow indicate treatment days.

The subject of series [14] is CMS. In words: Secondary dose-response HTS, Cell Titer Glo. It is filed as cell-based, human. Conditions: Homo sapiens, HTS.
Series [15] has as its system MV4-11. In words: Secondary dose-response HTS, Cell Titer Glo. Conditions: MV4-11; for EC50: Homo sapiens. It is filed as cell-based, human.
For series [16], the system named is CHRF288-11-luciferase/YFP+ xenograft. In words: In vivo efficacy, survival. Set-up: species or system NSG mice.
For series [17], the system named is MV4-11. It is filed as cell-based. The conditions noted are these: Homo sapiens, 72 h, Cell Titer Glo.
For a further series, the system named is CMK. Nature of the series: Secondary dose-response HTS, Cell Titer Glo. The format is cell-based, human. The conditions noted are these: Homo sapiens, CMK.
The test system of series [18] is CBFA2T3-GLIS2/JAK2V617F-induced AMKL model. Nature of the series: In vivo efficacy, survival. The conditions noted are these: CBFA2T3-GLIS2/JAK2V617F-Luc+ quaternary transplants, i.p. Set-up: species or system mice.
In series [19] the test system is Mll-PTD/wt:Flt3ITD/ITD secondary transplants. In words: In vivo efficacy, survival. Set-up: species or system mice. Conditions: 100 mg kg−1 daily x 5 days, i.p.
The subject of series [20] is M07e. In words: cells. Conditions: M-07e, 72 h, read-out: M07e. Details: species or system AML cell lines (8); Secondary HTS, 10-point dose-response in triplicate, Cell Titer Glo viability, four-parameter fit EC50.
Series [21] deals with AML cell lines. The conditions noted are these: human, 5 min.
Details of series [22]: method as in Wang et al., Biol Blood Marrow Transplant 2014 and others. Conditions: biphasic; ref Wang et al., Biol Blood Marrow Transplant 2014 and others; cited from earlier work.
Series [23] deals with AML cell lines. In words: Intracellular drug and phosphorylated metabolites by HPLC with liquid scintillation counting. Conditions: 2 h, 1 µM, all cell lines evaluated.
The mark [24] stands for this setting: secondary high-throughput screen, read-out: average effective concentration, ML-2.
The mark [25] stands for this setting: secondary high-throughput screen, read-out: average effective concentration, MV4-11.
Where [26] appears, read: secondary high-throughput screen, U937, read-out: average effective concentration, U937.
The mark [27] stands for this setting: secondary high-throughput screen, CMS, read-out: average effective concentration, CMS.
Setting [28] is: secondary high-throughput screen, read-out: average effective concentration, CMK.
Setting [29] is: secondary high-throughput screen.

Like-named read-outs stand apart in the source and are kept apart here.

As usually defined, the IC50 is the concentration at which inhibition is half-maximal.

Take `CO[C@H]1C(=O)[C@]2(C)[C@@H](OC)C[C@H]3OC[C@@]3(OC(C)=O)[C@H]2[C@H](OC(=O)c2ccccc2)[C@]2(O)C[C@H](OC(=O)[C@H](O)[C@@H](NC(=O)OC(C)(C)C)c3ccccc3)C(C)=C1C2(C)C` [Cabazitaxel, cabazitaxel]: the concentration for half-maximal inhibition (IC50) in the series with THP-1 came out at 4.4 nM; with U937 [1], 0.8 nM; in the series on CHRF288-11 [2], 2.9 nM; in the series with CMS [5], 6.3 nM; in the series on ML-2 it was 1.6 nM; in the series on MOLM-13 [6] it was 1.2 nM. The figures for the IC50 (in [10]; in the series on MV4-11 [17]) were over 50000 nM and 1.5 nM, respectively. Moreover, the EC50 with CHRF288-11 [3] (secondary HTS, 72 h, average of triplicate, read-out: EC50 CHRF288-11) came to 1 nM; with U937 [4] (secondary HTS, 72 h, average of triplicate, read-out: EC50 U937), 1 nM; with ML2 (secondary HTS, 72 h, average of triplicate, read-out: EC50 ML2) it was 1 nM; with ML2 (setting [24]), 0.5 nM; in the series on MOLM-13 [7] (secondary HTS, 72 h, average of triplicate, read-out: EC50 MOLM-13), 1 nM; in the series with M07e [8] (secondary HTS, 72 h, average of triplicate, read-out: EC50 M07e) it was 1 nM. The EC50 worked out at 1 nM in the series with CMS [14] (72 h, read-out: EC50 CMS); 0.3 nM in the series on MV4-11 [15] (secondary HTS, 72 h, average of triplicate, read-out: EC50 MV4-11); 0.34 nM in the series with MV4-11 [15] (setting [25]); 1 nM in the series with CMK (72 h, read-out: EC50 CMK). Besides, the Median survival is on record as 60 days in [9] (mouse, in vivo, ip); 62 days in series [11] (5 mg kg−1 q4d); 82 days in series [12] (5 mg kg−1 q4d); 44 days in series [16] (CHRF288-11 xenograft, 5 mg kg−1 q4d, i.p.); 40 days in series [16] (CHRF288-11 xenograft, 5 mg kg−1 q4d, x 2 cycles, i.p.). In [13], this molecule displayed an only tolerable dose of 5 mg/kg.

In the case of `Nc1ccn([C@@H]2O[C@H](CO)[C@@H](O)[C@@H]2O)c(=O)n1` [Cytarabine, cytarabine], the 50% inhibitory concentration (IC50) with THP-1 worked out at 8810 nM; with U937 [1], 11 nM; with CHRF288-11 [2], 606 nM; in the series on CMS [5] (Cell Titer Glo) it was 5370 nM; in the series with ML-2, 26 nM; in the series on MOLM-13 [6], 31 nM. The 50% inhibitory concentration (IC50) was 54 nM in [10] and 1980 nM in the series on MV4-11 [17]. Moreover, the EC50 was 1900 nM with CHRF288-11 [3] (HTS, secondary high-throughput screen, CHRF288-11, read-out: average effective concentration, CHRF288-11); 290 nM in the series on U937 [4] (setting [26]); 100 nM in the series on ML2 (setting [24]); over 10000 nM in the series on M07e [20]; 300 nM with MOLM-13 [7] (secondary high-throughput screen, read-out: average effective concentration, MOLM-13); 290 nM in the series with CMS [14] (setting [27]). Besides, the figures for the EC50 in the series with MV4-11 [15] (setting [25]) and in the series with CMK (setting [28]) were 2600 nM and 320 nM, respectively. Further, the Median survival in [18] (50 mg kg−1 daily x 5 days) is listed as 63 days; in [18] (100 mg kg−1 daily x 5 days) it was 80 days; in series [19], 49 days; in [9] (Mll-PTD/wt:Flt3ITD/ITD primary transplants, 50 mg kg−1 q4d, i.p.), 50 days; in [11] (50 mg kg−1 q4d), 56 days; in [12] (50 mg kg−1 q4d), 29 days. Moreover, the Median survival in [16] (CHRF288-11-Luc+ model, low-dose 6.25 mg/kg once daily for 5 days for 3 weeks) was found to be 26 days; in [16] (CHRF288-11 xenograft, 50 mg kg−1 q4d, i.p.), 25 days. Also, the “higher concentration of cytarabine giving nearly equivalent intracellular exposure to 1 µM gemcitabine” value with AML cell lines [21] (10 µM) is about 10 fold. Moreover, the “uptake at 10 µM cytarabine compared to 1 µM cytarabine” value with AML cell lines [21] (10 µM) is recorded as 1.6–3.7 fold. Further, the “uptake at 100 µM cytarabine compared to 1 µM cytarabine” value in the series on AML cell lines [21] (100 µM) is listed as 7–12 fold. The “triphosphate elimination α half-life” value in [22] is 7 to 20 min. Also, the “triphosphate elimination β half-life” value in series [22] was 2 to 3 h.

As to `Nc1ccn([C@@H]2O[C@H](COP(=O)(O)OP(=O)(O)OP(=O)(O)O)[C@@H](O)[C@@H]2O)c(=O)n1` [Ara-CTP, cytarabine triphosphate], the “share of the total intracellular accumulation” value in the series with AML cell lines [23] is 52–65%.

In the case of `Nc1nc(F)nc2c1ncn2[C@@H]1O[C@H](CO)[C@@H](O)[C@@H]1O` [Fludarabine, fludarabine, reference compound], the IC50 in the series with THP-1 is 4120 nM; with U937 [1], 31 nM; in the series on CHRF288-11 [2], over 35000 nM; with CMS [5] (Cell Titer Glo), 65 nM; in the series on ML-2, 5580 nM; in the series on MOLM-13 [6], 1750 nM. This molecule yielded an IC50 with MV4-11 [17] of over 15000 nM. For the same molecule, the “average effective concentration, CHRF288-11” value in the series with CHRF288-11 [3] (secondary high-throughput screen, CHRF288-11) was “Inactive”. Besides, the EC50 in the series on U937 [4] (setting [26]) was over 10000 nM; in the series with ML2 (setting [24]), over 10000 nM; with M07e [8] (secondary high-throughput screen, M07e, read-out: average effective concentration, M07e) it was over 10000 nM; with CMS [14] (setting [27]), 130 nM; in the series with CMK (setting [28]), 8100 nM. Besides, the “average effective concentration, MOLM-13” value with MOLM-13 [7] (setting [29]) is on record as “Inactive”. Further, the “average effective concentration, MV4-11” value in the series with MV4-11 [15] (setting [29]) is given as “Inactive”.

(Values after publication PMC6522510 (Nature Communications, 2019).)
